According to ChEMBL document CHEMBL1201862, “PubChem BioAssay data set” (2004):
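Assay format: 96-well plates, 48-hour exposure. Here, GI50 denotes the concentration required for 50% inhibition of growth.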 Active and inactive are the calls of the source. No stated cut-off is given here; in the data, active = GI50 up to about 1.1 µM and inactive = higher.

Assays:
Assay in all cases: inhibition of tumour cell growth, NCI panel, 48 h
[1] = system: 786-0
[2] = system: A498
[3] = system: A549
[4] = system: BT-549
[5] = system: CCRF-CEM
[6] = system: COLO 205
[7] = system: HCT-116
[8] = system: KM12
[9] = system: MDA-MB-231
[10] = system: MDA-N
[11] = system: Malme-3M
[12] = system: NCI/ADR-RES
[13] = system: OVCAR-4
[14] = system: OVCAR-8
[15] = system: SF-295
[16] = system: SK-MEL-28
[17] = system: SR
[18] = system: UACC-257
[19] = system: EKVX
[20] = system: LOX IMVI

Measured: GI50

COc1ccc(C2CC(c3ccc4ccccc4c3O)=NN2)cc1OC (stereo not given)
inactive: [1] 37.8 µM | [2] 52.6 µM | [3] 38 µM | [4] 23.5 µM | [5] 14.9 µM | [6] 38.7 µM | [7] 38.6 µM | [8] 48.4 µM | [9] 25.2 µM | [10] 21 µM | [11] 61.8 µM | [12] 32.7 µM | [13] 92.7 µM | [14] 43.6 µM | [15] 44.8 µM | [16] 76.4 µM | [17] 15.6 µM | [18] 57.8 µM

O=C(C#Cc1cn(C2CC(O)C(CO)O2)c(=O)[nH]c1=O)c1ccccc1 (stereo not given)
inactive: [1] 62.2 µM | [3] > 100 µM | [4] 37.2 µM | [6] 28.6 µM | [19] > 100 µM | [7] 42.5 µM | [8] > 100 µM | [20] 49.8 µM | [9] > 100 µM | [10] 60.3 µM | [11] 12.2 µM | [12] 32.6 µM | [13] 51.4 µM | [14] > 100 µM | [15] > 100 µM | [16] 39.5 µM | [17] 24.8 µM | [18] 55 µM

CS(C)(=O)=N/C=C\C(=O)C(Cl)(Cl)Cl
inactive: [1] > 100 µM | [3] > 100 µM | [4] > 100 µM | [5] 44.1 µM | [6] > 100 µM | [19] > 100 µM | [7] 98.6 µM | [8] > 100 µM | [20] > 100 µM | [9] > 100 µM | [10] 65.2 µM | [11] > 100 µM | [12] > 100 µM | [13] > 100 µM | [14] > 100 µM | [15] > 100 µM | [16] > 100 µM | [17] 58.7 µM | [18] > 100 µM

COc1cc(OC)c2c(c1)OC(c1ccccc1)CC2=O (stereo not given) [DIMETHYLPINOCEMBRIN]
inactive: [1] > 10 µM | [3] > 10 µM | [4] > 10 µM | [5] > 10 µM | [6] > 10 µM | [19] > 10 µM | [7] > 10 µM | [8] > 10 µM | [20] > 10 µM | [9] > 10 µM | [10] > 10 µM | [11] > 10 µM | [12] > 10 µM | [13] > 10 µM | [14] > 10 µM | [15] > 10 µM | [16] > 10 µM | [17] > 10 µM | [18] > 10 µM

CN(CCNC(=O)c1nn(-c2ccc(Cl)cc2Cl)c2c1Cc1ccccc1-2)CCNC(=O)c1nn(-c2ccc(Cl)cc2Cl)c2c1Cc1ccccc1-2
inactive: [1] 2.16 µM | [2] 5.14 µM | [3] 3.29 µM | [4] 7.38 µM | [5] 2.27 µM | [6] 1.81 µM | [19] 20 µM | [7] 2.1 µM | [8] 3.49 µM | [20] 2.07 µM | [9] 2.66 µM | [10] 2.25 µM | [11] 1.42 µM | [12] 3.39 µM | [13] 2.1 µM | [14] 2.07 µM | [15] 2.43 µM | [16] 1.97 µM | [18] 2.12 µM

O=c1cc(N2CCOCC2)n2c(ccc3ccccc32)n1
inactive: [1] > 100 µM | [2] > 100 µM | [3] > 100 µM | [4] > 100 µM | [5] > 100 µM | [6] > 100 µM | [19] > 100 µM | [7] > 100 µM | [8] > 100 µM | [20] > 100 µM | [9] > 100 µM | [10] 31.7 µM | [11] > 100 µM | [12] > 100 µM | [14] > 100 µM | [15] > 100 µM | [17] > 100 µM | [18] > 100 µM

CCNC1=C(NC(=O)c2ccc(OC)cc2)C(=O)c2ccccc2C1=O
inactive: [1] > 100 µM | [3] 70.3 µM | [4] 63.1 µM | [5] 48.3 µM | [6] 37 µM | [19] > 100 µM | [7] 36.3 µM | [8] 49.9 µM | [9] 92.9 µM | [10] 37.2 µM | [11] 21.3 µM | [12] 29 µM | [13] 34.7 µM | [14] 24.6 µM | [15] > 100 µM | [16] > 100 µM | [17] 56.5 µM | [18] 19.4 µM

O=C1C=C(Cl)C(=O)C(c2ccc(Cl)cc2)=C1
inactive: [1] 22.1 µM | [2] 23.8 µM | [3] 46.6 µM | [4] 23.8 µM | [5] 3.35 µM | [6] 16.4 µM | [19] 14.8 µM | [7] 19.3 µM | [8] 32.3 µM | [20] 16.1 µM | [9] 17.1 µM | [10] 13.3 µM | [11] 20.3 µM | [12] 26.4 µM | [13] 17.7 µM | [14] 18.2 µM | [15] 45.6 µM | [16] 20.2 µM | [18] 18.6 µM

Oc1cnnc2nc3ccccc3n12
inactive: [1] > 100 µM | [2] > 100 µM | [3] > 100 µM | [4] > 100 µM | [5] > 100 µM | [6] > 100 µM | [19] 34.8 µM | [7] > 100 µM | [8] > 100 µM | [20] 85.5 µM | [9] > 100 µM | [10] > 100 µM | [11] > 100 µM | [12] > 100 µM | [13] > 100 µM | [14] > 100 µM | [15] > 100 µM | [16] > 100 µM | [18] > 100 µM

CC(=O)OC1CC2c3cccc4c3C(CC2N(C)C1=O)CN4C(=O)c1ccccc1 (stereo not given)
inactive: [1] 15.2 µM | [2] 21.5 µM | [3] 17.5 µM | [4] 6.9 µM | [5] 20.7 µM | [6] 23.3 µM | [19] 22.1 µM | [7] 17 µM | [8] 21.3 µM | [20] 12.1 µM | [9] 12.6 µM | [10] 21.7 µM | [12] 20.6 µM | [13] 22.1 µM | [14] 16.4 µM | [15] 23.2 µM | [16] 21.6 µM | [17] 22.5 µM | [18] 20.5 µM

Cc1ccc(/N=N/c2c(O)c(C(=O)Nc3ccccc3)cc3ccccc23)c([N+](=O)[O-])c1
inactive: [1] > 100 µM | [2] > 100 µM | [3] > 100 µM | [4] > 100 µM | [5] > 100 µM | [6] > 100 µM | [19] > 100 µM | [7] > 100 µM | [8] > 100 µM | [20] > 100 µM | [9] > 100 µM | [10] > 100 µM | [11] > 100 µM | [12] > 100 µM | [13] > 100 µM | [14] > 100 µM | [15] 70.8 µM | [16] > 100 µM | [18] > 100 µM
